The values that follow come from patent publication US20260022096A1, “NOVEL SULFONAMIDES AND THEIR USE AS NEUROPROTECTIVE AND/OR NEURORESTORATIVE AGENTS” (GENECODE, priority 2022, published 2026).

For orientation: EC50 means the concentration that produces a half-maximal response.

Bounds are passed on as bounds.

For this assay, the target named is T1, GFRα1-RET (Homo sapiens, UniProt P56159).
T1 construct: expressed in transfected cells; host or cells: MG87 murine fibroblasts, stably transfected
T1 sequence (P56159 25-429 limits assumed): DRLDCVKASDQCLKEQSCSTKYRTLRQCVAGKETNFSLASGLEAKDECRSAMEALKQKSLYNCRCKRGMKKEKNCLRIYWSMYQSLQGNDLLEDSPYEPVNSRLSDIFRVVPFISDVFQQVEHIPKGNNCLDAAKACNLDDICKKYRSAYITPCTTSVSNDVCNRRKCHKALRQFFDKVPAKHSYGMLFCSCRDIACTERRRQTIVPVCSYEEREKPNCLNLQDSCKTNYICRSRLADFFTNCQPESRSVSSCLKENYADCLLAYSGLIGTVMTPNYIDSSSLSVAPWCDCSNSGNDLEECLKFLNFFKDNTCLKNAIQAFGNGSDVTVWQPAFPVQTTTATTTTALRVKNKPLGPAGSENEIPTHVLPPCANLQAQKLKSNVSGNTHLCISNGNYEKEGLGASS
The assay is described as follows: Elk1 reporter-gene (luciferase) assay in cells expressing GFRα1-RET. Format: cell-based. As to conditions: MG87 murine fibroblasts stably transfected with PathDetect Elk-1, GFRα1 and RET, 6 concentrations, agonist/activator activity. As to the method:
For ECso determination, a dose-response test was performed using 6 concentrations of each tested compound. Dose-response curves were fitted using the sigmoidal dose-response (variable slope) analysis in GraphPad Prism program (Graph Pad Inc) and ECso of agonist/activator activity was calculated. Dose-response experiments were all performed in duplicate, two times independently.
On to `O=C(c1ccc(F)cc1Cl)N1C[C@H]2CC[C@@H](C1)N2c1cc(S(=O)(=O)N2CCC(c3ccc(F)cc3)CC2)cc2c1OCC2` [compound 056, (2-chloro-4-fluoro-phenyl)-[(1S,5R)-8-[5-[[4-(4-fluorophenyl)-1-piperidyl]sulfonyl]-2,3-dihydrobenzofuran-7-yl]-3,8-diazabicyclo[3.2.1]octan-3-yl]methanone], for which the EC50 is below 1000 nM. With `CN(C(C)(C)C)S(=O)(=O)c1cc(Cl)c(OCCO)c(N2[C@@H]3CC[C@H]2CN(C(=O)c2ccc(F)cc2Cl)C3)c1` [compound 134], the EC50 was below 1000 nM. `O=C(c1ccc(F)cc1Cl)N1C[C@H]2CC[C@@H](C1)N2c1cc(S(=O)(=O)N2CCC(c3ccccc3)CC2)ccc1CO` [compound 070, (2-chloro-4-fluoro-phenyl)-[(1S,5R)-8-[2-(hydroxymethyl)-5-[(4-phenyl-1-piperidyl)sulfonyl]phenyl]-3,8-diazabicyclo[3.2.1]octan-3-yl]methanone] showed an EC50 below 1000 nM. `O=C(c1ccc(F)cc1Cl)N1C[C@H]2CC[C@@H](C1)N2c1cc(S(=O)(=O)N2CCC(F)CC2)cc2c1OCC2` [compound 130, (2-chloro-4-fluoro-phenyl)-[(1S,5R)-8-[5-[(4-fluoro-1-piperidyl)sulfonyl]-2,3-dihydrobenzofuran-7-yl]-3,8-diazabicyclo[3.2.1]octan-3-yl]methanone] yielded an EC50 below 1000 nM. The molecule `COc1ccc(S(=O)(=O)N2CCN(CC(O)c3ccc(F)cc3)CC2)cc1N1C2CCC1CN(C(=O)c1ccc(F)cc1Cl)C2` (racemic) [compound 128, (2-chloro-4-fluoro-phenyl)-[(1S,5R)-8-[5-[4-[(2RS)-2-(4-fluorophenyl)-2-hydroxy-ethyl]piperazin-1-yl]sulfonyl-2-methoxy-phenyl]-3,8-diazabicyclo[3.2.1]octan-3-yl]methanone] displayed a concentration giving a half-maximal response (EC50) below 1000 nM. For the molecule `COc1ccc(S(=O)(=O)N2CCC(OCc3ccccc3)C2)cc1N1C2CCC1CN(C(=O)c1ccc(F)cc1Cl)C2` (racemic) [compound 037, [(1S,5R)-8-[5-[(3SR)-3-benzyloxypyrrolidin-1-yl]sulfonyl-2-methoxy-phenyl]-3,8-diazabicyclo[3.2.1]octan-3-yl]-(2-chloro-4-fluoro-phenyl)methanone], the EC50 lay in the range of 1000 to 10000 nM.

With `COc1ccc(S(=O)(=O)N2CCC(=Cc3ccccc3)CC2)cc1N1[C@@H]2CC[C@H]1CN(C(=O)c1ccc(F)cc1Cl)C2` [compound 008, [(1S,5R)-8-[5-[(4-benzylidene-1-piperidyl)sulfonyl]-2-methoxy-phenyl]-3,8-diazabicyclo[3.2.1]octan-3-yl]-(2-chloro-4-fluoro-phenyl)methanone], the concentration giving a half-maximal response (EC50) was below 1000 nM.

In turn, `C[C@H]1CN(C(=O)c2ccc(F)cc2Cl)CCN1c1cc(S(=O)(=O)NC(C)(C)C)cc(Cl)c1O` [compound 110, N-tert-butyl-3-chloro-5-[(2S)-4-(2-chloro-4-fluoro-benzoyl)-2-methyl-piperazin-1-yl]-4-hydroxy-benzenesulfonamide] displayed an EC50 below 1000 nM. As for `COc1ccc(S(=O)(=O)N2CCN(CC(C)c3ccccc3)CC2)cc1N1C2CCC1CN(C(=O)c1ccc(F)cc1Cl)C2` (racemic) [compound 047, (2-chloro-4-fluoro-phenyl)-[(1S,5R)-8-[2-methoxy-5-[4-[(2RS)-2-phenylpropyl]piperazin-1-yl]sulfonyl-phenyl]-3,8-diazabicyclo[3.2.1]octan-3-yl]methanone], the half-maximal effective concentration (EC50) is below 1000 nM.

`CC(C)(C#N)NS(=O)(=O)c1cc(Cl)c(O)c(N2[C@@H]3CC[C@H]2CN(C(=O)c2ccc(F)cc2Cl)C3)c1` [compound 103] yielded a half-maximal effective concentration (EC50) of 1000 to 10000 nM.

`CCCN(C)S(=O)(=O)c1ccc(C)c(N2[C@@H]3CC[C@H]2CN(C(=O)c2ccc(F)cc2Cl)C3)c1` [compound 068, 3-[(1S,5R)-3-(2-chloro-4-fluoro-benzoyl)-3,8-diazabicyclo[3.2.1]octan-8-yl]-N,4-dimethyl-N-propyl-benzenesulfonamide] showed an EC50 below 1000 nM. `CNC1CN(c2ccc(S(=O)(=O)N3CCC(c4ccccc4)CC3)cc2N2[C@@H]3CC[C@H]2CN(C(=O)c2ccc(F)cc2Cl)C3)C1` [compound 123, (2-chloro-4-fluoro-phenyl)-[(1S,5R)-8-[2-[3-(methylamino)azetidin-1-yl]-5-[(4-phenyl-1-piperidyl)sulfonyl]phenyl]-3,8-diazabicyclo[3.2.1]octan-3-yl]methanone] yielded an EC50 below 1000 nM.

For the molecule `CC1(C)COCCN1S(=O)(=O)c1cc(Cl)c(O)c(N2[C@@H]3CC[C@H]2CN(C(=O)c2ccc(F)cc2Cl)C3)c1` [compound 131, [(1S,5R)-8-[3-chloro-5-(3,3-dimethylmorpholin-4-yl)sulfonyl-2-hydroxy-phenyl]-3,8-diazabicyclo[3.2.1]octan-3-yl]-(2-chloro-4-fluoro-phenyl)methanone], the concentration giving a half-maximal response (EC50) is below 1000 nM. In the case of `O=C(c1ccc(F)cc1Cl)N1C[C@H]2CC[C@@H](C1)N2c1cc(S(=O)(=O)N2CCC(c3ccccc3)CC2)cc(C(F)(F)F)c1O` [compound 087] it was below 1000 nM. To `CN1CCc2cc(S(=O)(=O)N3CCC(c4ccccc4)CC3)cc(N3[C@@H]4CC[C@H]3CN(C(=O)c3ccc(F)cc3Cl)C4)c21` [compound 119, (2-chloro-4-fluoro-phenyl)-[(1S,5R)-8-[1-methyl-5-[(4-phenyl-1-piperidyl)sulfonyl]indolin-7-yl]-3,8-diazabicyclo[3.2.1]octan-3-yl]methanone] belongs below 1000 nM; to `CC1(NS(=O)(=O)c2cc(Cl)c(O)c(N3[C@@H]4CC[C@H]3CN(C(=O)c3ccc(F)cc3Cl)C4)c2)CCC1` [compound 102, 3-chloro-5-[(1S,5R)-3-(2-chloro-4-fluoro-benzoyl)-3,8-diazabicyclo[3.2.1]octan-8-yl]-4-hydroxy-N-(1-methylcyclobutyl) benzenesulfonamide], below 1000 nM. Molecule `CCCN(C)S(=O)(=O)c1ccc(OC)c(N2CCN(C(=O)c3ccc(F)cc3Cl)CC2C)c1` (racemic) [compound 001, 4-methoxy-N-methyl-N-propyl-3-[rac-(2S)-4-(2-chloro-4-fluoro-benzoyl)-2-methyl-piperazin-1-yl]benzenesulfonamide] had an EC50 of 1000 to 10000 nM. In the case of `O=C(c1ccc(F)cc1Cl)N1C[C@H]2CC[C@@H](C1)N2c1cc(S(=O)(=O)N2CCN(CCc3ccc(Cl)cc3)CC2)ccc1O` [compound 064, (2-chloro-4-fluoro-phenyl)-[(1S,5R)-8-[5-[4-[2-(4-chlorophenyl)ethyl]piperazin-1-yl]sulfonyl-2-hydroxy-phenyl]-3,8-diazabicyclo[3.2.1]octan-3-yl]methanone] it was below 1000 nM. Turning to `CC1(NS(=O)(=O)c2cc(Cl)c(O)c(N3[C@@H]4CC[C@H]3CN(C(=O)c3ccc(F)cc3Cl)C4)c2)CC1` [compound 101, 3-chloro-5-[(1S,5R)-3-(2-chloro-4-fluoro-benzoyl)-3,8-diazabicyclo[3.2.1]octan-8-yl]-4-hydroxy-N-(1-methylcyclopropyl) benzenesulfonamide], the EC50 lay within 1000 to 10000 nM.

For `COc1ccc(S(=O)(=O)NC(C)(C)C)cc1N1CCN(C(=O)c2ccc(F)cc2Cl)CC1C` (racemic) [compound 020, N-tert-butyl-4-methoxy-3-[rac-(2S)-4-(2-chloro-4-fluoro-benzoyl)-2-methyl-piperazin-1-yl]benzenesulfonamide], the EC50 lay in the range of 10000 to 50000 nM. On to `CCN(CC)S(=O)(=O)c1cnc(O)c(N2[C@@H]3CC[C@H]2CN(C(=O)c2ccc(F)cc2Cl)C3)c1` [compound 035], for which the EC50 was 10000 to 50000 nM. Molecule `COc1ccc(S(=O)(=O)N2CCN([C@H]3C[C@@H]3c3ccc(F)cc3)CC2)cc1N1[C@@H]2CC[C@H]1CN(C(=O)c1ccc(F)cc1Cl)C2` (racemic) [compound 044, (2-chloro-4-fluoro-phenyl)-[(1S,5R)-8-[5-[4-[(1SR,2RS)-2-(4-fluorophenyl)cyclopropyl]piperazin-1-yl]sulfonyl-2-methoxy-phenyl]-3,8-diazabicyclo[3.2.1]octan-3-yl]methanone] showed a concentration giving a half-maximal response (EC50) below 1000 nM. The molecule `COc1ccc(S(=O)(=O)N2CCC(c3cccc(-n4cccn4)c3)CC2)cc1N1[C@@H]2CC[C@H]1CN(C(=O)c1ccc(F)cc1Cl)C2` [compound 043, (2-chloro-4-fluoro-phenyl)-[(1S,5R)-8-[2-methoxy-5-[[4-(3-pyrazol-1-ylphenyl)-1-piperidyl]sulfonyl]phenyl]-3,8-diazabicyclo[3.2.1]octan-3-yl]methanone] gave an EC50 below 1000 nM. For the molecule `COc1ccc(S(=O)(=O)N(C)C(C)(C)C)cc1N1[C@@H]2CC[C@H]1CN(C(=O)c1cc(F)c(F)cc1Cl)C2` [compound 054, N-tert-butyl-3-[(1S,5R)-3-(2-chloro-4,5-difluoro-benzoyl)-3,8-diazabicyclo[3.2.1]octan-8-yl]-4-methoxy-N-methyl-benzenesulfonamide], the EC50 fell in the range of 1000 to 10000 nM. Regarding `CCCN(C)S(=O)(=O)c1ccc(OC(F)(F)F)c(N2[C@@H]3CC[C@H]2CN(C(=O)c2ccc(F)cc2Cl)C3)c1` [compound 027, 3-[(1S,5R)-3-(2-chloro-4-fluoro-benzoyl)-3,8-diazabicyclo[3.2.1]octan-8-yl]-N-methyl-N-propyl-4-(trifluoromethoxy)benzene sulfonamide], the EC50 lay within 1000 to 10000 nM.
